Earlier results as cited in publication PMC4408927 (Nature, 2015).

Assays:
[1] = not given; remark: listed apart in the source

Row | Effect on bleeding | SMILES | Platelet aggregation (platelet aggregation) | ADP-induced platelet aggregation (platelet aggregation) | Arterial thrombosis [1] | Bleeding time
1 | minimal effect | CC(C)(C)c1ccccc1Oc1ncccc1NC(=O)Nc1ccc(OC(F)(F)F)cc1 [BPTU, 1-(2-(2-(tert-butyl)phenoxy)pyridin-3-yl)-3-(4-(trifluoromethoxy)phenyl)urea] | substantially reduces |  |  | 
2 |  | CNc1nc(I)nc2c1ncn2[C@H]1C[C@H](OP(=O)(O)O)[C@]2(COP(=O)(O)O)C[C@H]12 [MRS2500, (1′R,2′S,4′S,5′S)-4-(2-Iodo-6-methylaminopurin-9-yl)-1-[(phosphato)methyl]-2(phosphato)bicycle[3.1.0]-hexane] |  | completely blocks | effectively reduces | moderate prolongation
